In PubChem BioAssay (NCI):
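Each compound was tested at five concentrations against cells in 96-well plates for 48 hours. GI50 is the concentration that inhibits growth by half. At the TGI there is no net growth.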

Assays:
Assay in all cases: NCI tumour cell line growth inhibition, 48 h
EKVX NSCLC = system: EKVX NSCLC
U251 CNS = system: U251 CNS
HOP-62 NSCLC = system: HOP-62 NSCLC
SNB-75 CNS = system: SNB-75 CNS
TK-10 renal = system: TK-10 renal
SN12C renal = system: SN12C renal
KM12 colon = system: KM12 colon
NCI/ADR-RES ovarian = system: NCI/ADR-RES ovarian
SF-295 CNS = system: SF-295 CNS
SW-620 colon = system: SW-620 colon
786-0 renal = system: 786-0 renal
CAKI-1 renal = system: CAKI-1 renal
HL-60(TB) leukemia = system: HL-60(TB) leukemia
MALME-3M melanoma = system: MALME-3M melanoma
SK-MEL-28 melanoma = system: SK-MEL-28 melanoma
NCI-H460 lung = system: NCI-H460 lung
HOP-92 NSCLC = system: HOP-92 NSCLC
OVCAR-5 ovarian = system: OVCAR-5 ovarian
RXF 393 renal = system: RXF 393 renal
SNB-19 CNS = system: SNB-19 CNS
HCC-2998 colon = system: HCC-2998 colon
PC-3 prostate = system: PC-3 prostate
SK-MEL-5 melanoma = system: SK-MEL-5 melanoma
RPMI-8226 leukemia = system: RPMI-8226 leukemia
SK-OV-3 ovarian = system: SK-OV-3 ovarian
A549 NSCLC = system: A549 NSCLC
UACC-257 melanoma = system: UACC-257 melanoma
COLO 205 colon = system: COLO 205 colon

COc1ccccc1-c1nccc(COc2ccccc2C[C@@H](Oc2ncnc3sc(-c4ccc(F)cc4)c(-c4ccc(OCCN5CCN(C)CC5)c(Cl)c4C)c23)C(=O)O)n1
GI50 (EKVX NSCLC): 1.32 µM
TGI (EKVX NSCLC): 5.03 µM
GI50 (U251 CNS): 1.88 µM
TGI (U251 CNS): 4.15 µM
GI50 (HOP-62 NSCLC): 2.39 µM
TGI (HOP-62 NSCLC): 7.21 µM
GI50 (SNB-75 CNS): 0.0348 µM
TGI (SNB-75 CNS): 1.29 µM
GI50 (TK-10 renal): 3.46 µM
TGI (TK-10 renal): 14.9 µM
GI50 (SN12C renal): 1.75 µM
TGI (SN12C renal): 3.83 µM
GI50 (KM12 colon): 3.33 µM
TGI (KM12 colon): 12.1 µM
GI50 (NCI/ADR-RES ovarian): 18.2 µM
TGI (NCI/ADR-RES ovarian): > 100 µM
GI50 (SF-295 CNS): 1.89 µM
TGI (SF-295 CNS): 3.91 µM
GI50 (SW-620 colon): 2.34 µM
TGI (SW-620 colon): 6.88 µM
GI50 (786-0 renal): 2.01 µM
TGI (786-0 renal): 4.2 µM
GI50 (CAKI-1 renal): 2.66 µM
TGI (CAKI-1 renal): 9.89 µM
GI50 (HL-60(TB) leukemia): 0.0205 µM
TGI (HL-60(TB) leukemia): 0.0524 µM
GI50 (MALME-3M melanoma): 1.63 µM
TGI (MALME-3M melanoma): 3.37 µM
GI50 (SK-MEL-28 melanoma): 1.76 µM
TGI (SK-MEL-28 melanoma): 3.36 µM
GI50 (NCI-H460 lung): 2.09 µM
TGI (NCI-H460 lung): 5.84 µM
GI50 (HOP-92 NSCLC): 1.41 µM
TGI (HOP-92 NSCLC): 3.27 µM
GI50 (OVCAR-5 ovarian): 2.12 µM
TGI (OVCAR-5 ovarian): 6.25 µM
GI50 (RXF 393 renal): 0.61 µM
TGI (RXF 393 renal): 2.16 µM
GI50 (SNB-19 CNS): 2.05 µM
TGI (SNB-19 CNS): 4.58 µM
GI50 (HCC-2998 colon): 1.31 µM
TGI (HCC-2998 colon): 2.78 µM
GI50 (PC-3 prostate): 1.96 µM
TGI (PC-3 prostate): 4.81 µM
GI50 (SK-MEL-5 melanoma): 1.71 µM
TGI (SK-MEL-5 melanoma): 3.12 µM
GI50 (RPMI-8226 leukemia): < 0.0104 µM
TGI (RPMI-8226 leukemia): 0.285 µM
GI50 (SK-OV-3 ovarian): 4.04 µM
TGI (SK-OV-3 ovarian): 16.5 µM
GI50 (A549 NSCLC): 10 µM
TGI (A549 NSCLC): 31.7 µM
GI50 (UACC-257 melanoma): 3.01 µM
TGI (UACC-257 melanoma): 11.2 µM
GI50 (COLO 205 colon): 1.86 µM
TGI (COLO 205 colon): 4.33 µM
